Like-named read-outs stand apart in the source and are kept apart here. Marks after values point to notes of the source that are not given here.
Tests used:
tumor cell lines = test: cells; assay type: cell-based; settings: HL60/AR (MRP1) or S1-M1-3.2 (MXR)
Text: (§1) Cells lines with previously known mechanisms of resistance. […] Res. 8: 207-218,1996); KB-3-1 (parental derived from an epidermoid carcinoma), KB-8.5, KB-V1 (Akiyama S-I, Fojo A, Hanover J A, Pastan I, Gottesman M M. Isolation and genetic characterization of human KB cell lines resistant to multiple drugs. Somatic Cell Mol. Gen., 11: 117-126,1985; Shen D-W, Cardarelli C, Hwang J, Cornwell M, Richert N, Ishii S, Pastan I, Gottesman MM. […] J. Biol. Chem., 261: 7762-7770, 1986); and HL-60 (parental derived from human leukemia) and HL60/AR (McGrath T., Center M. S. Adriamycin resistance in HL60 cells in the absence of detectable P-glycoprotein. Biochem. Res. Commun., 145:1171-1176,1987); A549 and A549.EpoB40 (He L., Yang C.-P.H., Horwitz S. B. Mutations in p-tubulin map to domains involved in regulation of microtubule stability in epothilone-resistant cell lines. Molecular Cancer Therapeutics. 1: 3-10, 2001). HCT-15 human colon carcinoma and DLD-1 human colon carcinoma are obtained from American Tissue Culture Collection. The MX-1W carcinoma is a Wyeth variant orginally obtained as MX-1 breast carcinoma from the National Cancer Institute. Cell lines selected for resistance to Representative Example 129. KB-3-1 cells are selected for resistance to Example 129 by chronically exposing cells to increasing concentrations of Example 129.
(§2) 2.2. Cell Survival Assay: Standard Pharmacological Test Procedure. The concentration of candidate inhibitor required to inhibit 50% of cell growth (IC50) is done according to previously reported methods. […] Compounds are serially diluted into media as 2× stocks and 100 μl added to cells in duplicate. Compounds are incubated with cells for 3 days. At the end of the incubation period the sulforhodamine B (SRB) assay, which measures protein content as an assessment of cell survival, is performed as described previously (Skehan P, Storeng R, Scudiero D, Monks A, McMahon J, Vistica D, Warren J T, Bokesch H, Kenney S, Boyd MR. New calorimetric cytotoxicity assay for anticancer-drug screening. J Natl Cancer Inst 1990 Jul 4;82(13):1107-12) with some modification as follows. For KB-3-1 cells with 20% FCS, media is gently decanted and replaced with 200 μl of serum-free media mixed with cold 50% TCA for a final concentration of 10% TCA. The plates are incubated for 1 hr at 4° C., followed by washing 5 times in cold distilled water, then air dried overnight. The fixed cells are stained for 10 min with 80 μl of 0.04% SRB solution prepared in 1% glacial acetic acid. Stain is discarded and plates washed 5 times in 1% glacial acetic acid, then air-dried until completely dry. Stained cell product is dissolved in 150 μl of 10 mM Trizma Base and placed on a shaker for 20 minutes until fully dissolved. Absorbance is read on a Victor V multi-label plate reader (Perkin Elmer, Gaithersburg, Md.).

MX-1W tumor = test: Growth of tumors in nude mice, MX-1W xenograft; assay type: in vivo
Text: (§3) 2.4. Growth of Tumors in Nude Mice.

S1 = test: Cell survival assay (SRB), S1; assay type: cell-based; settings: Homo sapiens; S1 parental; Table 5; read-out: S1 IC50, nM (N)
Text: as §1, §2

A549.EpoB40 = assay type: cell-based; settings: vs A549; below 1 = sensitive
Text: as §1
as §2, with “Stained cell product is dissolved in 150 μl of 10 mM Trizma Base and placed on a shaker for 20 minutes until fully dissolved.” left out

KB-3-1 = test: Cell survival assay (SRB), KB-3-1; assay type: cell-based, human
Outline: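 SRB protein stain as survival read-out; IC50 = conc. giving 50% growth inhibition. Compound serially diluted, duplicate wells, 3 d exposure; TCA fixation (10% final, 1 h, 4 °C), 0.04% SRB/1% acetic acid 10 min, solubilised in 10 mM Trizma Base, A read.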

KB-HTI-4.0 = test: Cell survival assay, KB-3-1 line made resistant to Example 129 (KB-HTI-4.0); assay type: cell-based, human; settings: for IC50: KB-3-1 line made resistant to Example 129, Table 8, read-out: KB-HTI-4.0 IC50
Text: as §1, §2
Cells are selected for resistance to Example 129 to understand the frequency and mechanistic basis of resistance.

HL60 = test: Cell survival assay (MTS), HL60; assay type: cell-based; settings: Homo sapiens, HL-60; HL60 parental; Table 5; read-out: HL60 IC50, nM (N)
HL60/AR (MRP1) = test: Cell survival assay, HL60/AR (MRP1); settings: for IC50: Homo sapiens, HL-60/AR, read-out: HL60/AR (MRP1) IC50, nM (N); for RR, relative resistance: IC50 HL60/AR / IC50 HL60
Text: as §1, §2
(§4) J. Cell Science,113: 2011-2021, 2000). It was unknown whether the hemiasterlin family of peptides interact with these drug pumps.

KB-PTX-15+099 = test: Cell survival assay, KB-PTX-15+099 (paclitaxel-resistant, non-MDR); assay type: cell-based, human
S1-M1-3.2 (MXR) = test: Cell survival assay, S1-M1-3.2 (MXR); assay type: cell-based, human; settings: for IC50: Homo sapiens, S1-M1-3.2, MXR over-expression, Table 5, read-out: S1-M1-3.2 (MXR) IC50, nM (N); for RR, relative resistance: IC50 S1-M1-3.2 / IC50 S1
Text: as §1, §2, §4

[1] = test system: Human Melanoma Carcinoma Lox
KB-V1 (MDR1++) = test: Cell survival assay (SRB), KB-V1 (MDR1++); settings: for IC50: Homo sapiens; for RR, relative resistance: IC50 KB-V1 / IC50 KB-3-1
KB-8-5 (MDR1+) = test: Cell survival assay (SRB), KB-8-5 (MDR1+); settings: for IC50: Homo sapiens; for RR, relative resistance: IC50 KB-8-5 / IC50 KB-3-1; for resistance of KB-8-5 cells: KB-8-5 (KB-85) vs KB-3-1, in vitro
[2] = test system: human carcinoma xenografts; test: Growth of tumors in nude mice, several xenograft models and tolerated dose; assay type: in vivo; settings: DLD-1, MX-1W or HCT-15 tumors; at or near the MTD
Text: as §3

[3] = test system: Human Epidermoid Carcinoma KB-3-1; test: Growth of tumors in nude mice, KB-3-1 xenograft; assay type: in vivo; settings: KB-3-1; vincristine 1 mg/kg IP, days 1,5,9
Description: as §3
In these experiments, xenografts are implanted subcutaneously into the flanks of nude mice. […] Relative tumor mass compared to controls are assessed during the 21-day post-staging period.
Groups of 5 female nu/nu mice are injected with 1.5×10^6 KB-3-1 (A) or Lox cells (B). […] Relative tumor growth is determined during the experiment and % T/C calculated. Statistical analyses are Student's t-test of treated time points vs. vehicle (*, P<0.05; **, P<0.01)

KB-8.5 tumor = test: Growth of tumors in nude mice, KB-8-5 xenograft; assay type: in vivo; settings: vincristine 1 mg/kg IP, days 1,5,9
Text: as §3

HCT-15 tumor = test: Growth of tumors in nude mice, HCT-15 xenograft; assay type: in vivo; settings: vincristine 1 mg/kg IP, days 1,5,9
Text: as §3

DLD-1 tumor = test: Growth of tumors in nude mice, DLD-1 xenograft; assay type: in vivo; settings: vincristine 1 mg/kg IP, days 1,5,9
Text: as §3

[4] = MX-1W, vincristine 1 mg/kg IP, days 1,5,9
[5] = Lox, vincristine 1 mg/kg IP, days 1,5,9
[6] = Homo sapiens, KB-3-1 parental, Table 3, read-out: KB-3-1 IC50, nM (N)
[7] = Homo sapiens, KB-3-1 parental, Table 8, read-out: KB-3-1 IC50
[8] = read-out: KB-V1 (MDR1++) IC50, nM (N)
[9] = MDR1, read-out: KB-8-5 (MDR1+) IC50, nM (N)

Compound | IC50 (S1) [nM] | resistance of A549.EpoB40 cells (A549.EpoB40) [fold] | IC50 (KB-HTI-4.0; Homo sapiens) [nM] | IC50 (HL60) [nM] | IC50 (HL60/AR (MRP1)) [nM] | RR, relative resistance (HL60/AR (MRP1)) | IC50 (S1-M1-3.2 (MXR)) [nM] | RR, relative resistance (S1-M1-3.2 (MXR)) | RR, relative resistance (KB-V1 (MDR1++); Table 3) | RR, relative resistance (KB-8-5 (MDR1+); Table 3) | resistance of KB-8-5 cells (KB-8-5 (MDR1+)) [fold] | IC50 (KB-3-1; [6]) [nM] | IC50 (KB-3-1; [7]) [nM] | (RR) relative resistance vs. parental cells (KB-HTI-4.0; KB-HTI-4.0 vs KB-3-1) | IC50 (KB-V1 (MDR1++); [8]) [nM] | IC50 (KB-8-5 (MDR1+); [9]) [nM] | also measured
CC[C@]1(O)C[C@@H]2CN(CCc3c([nH]c4ccccc34)[C@@](C(=O)OC)(c3cc4c(cc3OC)N(C)[C@H]3[C@@](O)(C(=O)OC)[C@H](OC(C)=O)[C@]5(CC)C=CCN6CC[C@]43[C@@H]65)C2)C1 [vinblastine] | 6.5 | 0.2 | 6.19 ± 1.26 | 0.5 | 2 | 3.7 | 12.7 | 1.9 | 1848 | 37 | 37 |  |  |  |  |  | resistance detected in cells over-expressing MRP1 or MXR (tumor cell lines): no resistance; Activity in nude mice animal model (% T/C @ MTD on days 11-15) MX-1W (MX-1W tumor; staged MX-1W xenograft, at MTD, days 11-15): 64%; IC50 (KB-3-1; Homo sapiens, KB 3-1, 72 h, amount of drug needed to kill 50% of cells after three days continuous exposure, Table 11, read-out: IC50 in parental cell line KB-3-1): 0.8 nM; IC50 (KB-3-1; Homo sapiens, KB 3-1, KB-3-1, Table 6, read-out: KB-3-1 IC50): 0.703 ± 0.097 nM; IC50 (KB-3-1; Homo sapiens, KB 3-1, KB-3-1 parental, Table 3, read-out: KB-3-1 IC50, nM (N)): 0.79 ± 0.5 nM; IC50 (KB-3-1; Homo sapiens, KB 3-1, KB-3-1 parental, Table 8, read-out: KB-3-1 IC50): 0.73 ± 0.03 nM; (RR) relative resistance vs. parental cells (KB-HTI-4.0): (9); resistance of KB-3-1-derived cell lines selected with Example 129 (KB-HTI-4.0; vs KB-3-1): 9 fold; IC50 (KB-PTX-15+099; Homo sapiens, KB-PTX-15+099, Table 6, read-out: KB-PTX-15+099 IC50): 0.192 ± 0.022 nM; Average Relative Resistance (RR) (KB-PTX-15+099; IC50 KB-PTX-15+099 / IC50 KB-3-1, less than 1 = increased sensitivity): (0.27); increased sensitivity of KB-PTX-15+099 cells (KB-PTX-15+099; vs KB-3-1): 3.7 fold; Activity in nude mice animal model (% T/C @ MTD on days 11-15) LOX ([1]; staged LOX xenograft, at MTD ('<': MTD not achieved), days 11-15): 9%; IC50 (KB-V1 (MDR1++); read-out: KB-V1 (MDR1++) IC50, nM (N), KB-V1, high MDR1 expression, Table 3): 1460 ± 1020 nM; IC50 (KB-8-5 (MDR1+); MDR1, read-out: KB-8-5 (MDR1+) IC50, nM (N), KB-8-5, moderate MDR1 expression, Table 3): 29.2 ± 22 nM
CC[C@]1(O)C[C@H]2CN(CCc3c([nH]c4ccccc34)[C@@](C(=O)OC)(c3cc4c(cc3OC)N(C=O)[C@H]3[C@@](O)(C(=O)OC)[C@H](OC(C)=O)[C@]5(CC)C=CCN6CC[C@]43[C@@H]65)C2)C1 [vincristine] |  |  |  |  |  |  |  |  |  |  |  |  |  |  |  |  | % T/C on day 7 (MX-1W tumor; [4]): 65%; % T/C on day 14 (MX-1W tumor; [4]): 61%; response of tumors [2]: no response; % T/C on day 7 [3]: 15** %; % T/C on day 14 [3]: 12** %; % T/C on day 21 [3]: 17** %; % T/C on day 6 (KB-8.5 tumor): 71%; % T/C on day 14 (KB-8.5 tumor): 85%; % T/C on day 21 (KB-8.5 tumor): 81%; % T/C on day 9 (HCT-15 tumor): 91%; % T/C on day 13 (HCT-15 tumor): 81%; % T/C on day 17 (HCT-15 tumor): 95%; % T/C on day 21 (HCT-15 tumor): 107%; % T/C on day 7 [1, 5]: 13** %; % T/C on day 12 [1, 5]: 3** %; % T/C on day 7 (DLD-1 tumor): 113%; % T/C on day 14 (DLD-1 tumor): 119%; % T/C on day 21 (DLD-1 tumor): 177%
O=C1c2c(O)ccc(O)c2C(=O)c2c(NCCNCCO)ccc(NCCNCCO)c21 [mitoxantrone] | 31 |  | 430 ± 159 | 5.9 | 190 | 32.4 | 16600 | 535 | >291 | 1.9 |  | 10.3 ± 6.9 | 10 ± 6.5 | (43) | > 3000 | 19.1 | 
COc1cccc2c1C(=O)c1c(O)c3c(c(O)c1C2=O)C[C@@](O)(C(=O)CO)C[C@@H]3O[C@H]1C[C@H](N)[C@H](O)[C@H](C)O1 [adriamycin] | 221 ± 113 |  | 552 ± 111 | 24.2 ± 6.8 | > 3000 | >124 | 11500 ± 367 | 52 | 265 | 15 | 15 | 43.3 ± 32 | 33.9 ± 21.2 | (16) | 11500 ± 9670 | 658 ± 483 | 
epothilone B |  | 107 |  |  |  |  |  |  |  |  |  |  |  | (4) |  |  | IC50 (KB-3-1; KB-3-1 parental, Table 8, read-out: KB-3-1 IC50): 0.63 ± 0.08 nM; IC50 (KB-HTI-4.0): 2.37 ± 2.2 nM

— US20040121965A1, “Method of treating resistant tumors” (Wyeth Holdings Corporation, priority 2002, published 2004)
